According to publication PMC10141580, “Cyclic Dichalcogenides Extend the Reach of Bioreductive Prodrugs to Harness Thiol/Disulfide Oxidoreductases: Applications to seco-Duocarmycins Targeting the Thioredoxin System” (ACS Central Science, 2023):
Several values for one entry are separate records, joined by “and”; a condition that tells them apart may be missing. Equal values may be shown once. Read-outs that look alike come from different tables or passages of the source.

Experiments:
A549 cells = assay: Resazurin cytotoxicity assay, A549, 72 h; conditions: read-out: IC50(nM): A549
Procedure: We used A549 lung cancer and HeLa cervical cancer cell lines for initial screening of the prodrugs.
Fi gure S9: Cell ular resazurin-based cytotoxi ci ty as s a y.
Dose -response curves were calculated from at least 27 incremental single concentrations over a range
of at least three log units. Individual experiments with annotated experiment numbers are shown for each prodrug

mouse = assay: Tolerability for repeated dose administration in vivo (summary)
[1] = test system: NCI-60 standardized human tumor cell line panel; assay: cells; format: cell-based

Structure (SMILES): COc1cc2cc(C(=O)N3C[C@@H](CCl)c4c3cc(OC(=O)N(CCC(=O)N3CCN(C)CC3)C3CCCCC3)c3ccccc43)[nH]c2c(OC)c1OC [P-CC60-CBI-TMI]
- IC50 (A549 cells): 1700 nM
- remarks (mouse; repeated dose administration): well tolerated
- well-tolerated dose (mouse; weekly or twice-weekly administration): 3 mg/kg
- NCI-60 screening: Log(GI50) [1]: -5.81 and -5.62
- NCI-60 screening: Log(GI50) ([1]; 786-0 (RE) cell line, log10 of GI50 in M): -5.76
- GI50 ([1]; 786-0 (RE) cell line, read-out: NCI-60 screening: Raw GI50): 1700 nM
- GI50 ([1]; 786-0, read-out: GI50): 1700 nM
- NCI-60 screening: Log(GI50) ([1]; A498 (RE) cell line, log10 of GI50 in M): -5.56
- GI50 ([1]; A498 (RE) cell line, read-out: NCI-60 screening: Raw GI50): 2800 nM
- GI50 ([1]; A498, read-out: GI50): 2800 nM
- GI50 ([1]; A549/ATCC, read-out: GI50): 2000 nM
- NCI-60 screening: Log(GI50) ([1]; ACHN (RE) cell line, log10 of GI50 in M): -6.31
- GI50 ([1]; ACHN, read-out: GI50): 490 nM
- GI50 ([1]; BT-549, read-out: GI50): 1600 nM
- NCI-60 screening: Log(GI50) ([1]; CAKI-1 (RE) cell line, log10 of GI50 in M): -5.83
- GI50 ([1]; CAKI-1 (RE) cell line, read-out: NCI-60 screening: Raw GI50): 1500 nM
- GI50 ([1]; CAKI-1, read-out: GI50): 1500 nM
- GI50 ([1]; CCRF-CEM, read-out: GI50): 990 nM
- GI50 ([1]; COLO 205, read-out: GI50): 1400 nM
- NCI-60 screening: Log(GI50) ([1]; DU-145 (PR) cell line, log10 of GI50 in M): -6.34
- GI50 ([1]; DU-145, read-out: GI50): 460 nM
- GI50 ([1]; EKVX, read-out: GI50): 1900 nM
- GI50 ([1]; HCC-2998, read-out: GI50): 1500 nM
- GI50 ([1]; HCT-15, read-out: GI50): 1700 nM
- GI50 ([1]; HCT-116, read-out: GI50): 1500 nM
- GI50 ([1]; HL-60(TB), read-out: GI50): 750 nM
- GI50 ([1]; HOP-62, read-out: GI50): 590 nM
- GI50 ([1]; HOP-92, read-out: GI50): 2500 nM
- GI50 ([1]; HT29, read-out: GI50): 1500 nM
- NCI-60 screening: Log(GI50) ([1]; IGROV1 (OV) cell line, log10 of GI50 in M): -5.64
- GI50 ([1]; IGROV1 (OV) cell line, read-out: NCI-60 screening: Raw GI50): 2300 nM
- GI50 ([1]; IGROV1, read-out: GI50): 2300 nM
- GI50 ([1]; K-562, read-out: GI50): 680 nM
- GI50 ([1]; KM12, read-out: GI50): 2100 nM
- GI50 ([1]; LOX IMVI, read-out: GI50): 1100 nM
- GI50 ([1]; M14, read-out: GI50): 1500 nM
- GI50 ([1]; MALME-3M, read-out: GI50): 1600 nM
- GI50 ([1]; MCF7, read-out: GI50): 320 nM
- GI50 ([1]; MDA-MB-435, read-out: GI50): 1800 nM
- GI50 ([1]; MDA-MB-468, read-out: GI50): 690 nM
- GI50 ([1]; MOLT-4, read-out: GI50): 590 nM
- GI50/IC50, mean ([1]; NCI-60 vs ProliFiler, 19 overlapping cell lines): 4.6
- GI50 ([1]; NCI-H23, read-out: GI50): 470 nM
- GI50 ([1]; NCI-H226, read-out: GI50): 1400 nM
- NCI-60 screening: Log(GI50) ([1]; NCI-H460 (LC) cell line, log10 of GI50 in M): -6.29
- GI50 ([1]; NCI-H460, read-out: GI50): 510 nM
- NCI-60 screening: Log(GI50) ([1]; NCI-H522 (LC) cell line, log10 of GI50 in M): -5.77
- GI50 ([1]; NCI-H522 (LC) cell line, read-out: NCI-60 screening: Raw GI50): 1700 nM
- GI50 ([1]; NCI-H522, read-out: GI50): 1700 nM
- NCI-60 screening: Log(GI50) ([1]; OVCAR-3 (OV) cell line, log10 of GI50 in M): -5.68
- GI50 ([1]; OVCAR-3 (OV) cell line, read-out: NCI-60 screening: Raw GI50): 2100 nM
- GI50 ([1]; OVCAR-3, read-out: GI50): 2100 nM
- NCI-60 screening: Log(GI50) ([1]; OVCAR-4 (OV) cell line, log10 of GI50 in M): -5.63
- GI50 ([1]; OVCAR-4 (OV) cell line, read-out: NCI-60 screening: Raw GI50): 2300 nM
- GI50 ([1]; OVCAR-4, read-out: GI50): 2300 nM
- NCI-60 screening: Log(GI50) ([1]; OVCAR-5 (OV) cell line, log10 of GI50 in M): -5.29
- GI50 ([1]; OVCAR-5, read-out: GI50): 5100 nM
- NCI-60 screening: Log(GI50) ([1]; OVCAR-8 (OV) cell line, log10 of GI50 in M): -5.78
- GI50 ([1]; OVCAR-8 (OV) cell line, read-out: NCI-60 screening: Raw GI50): 1700 nM
- GI50 ([1]; OVCAR-8, read-out: GI50): 1700 nM
- NCI-60 screening: Log(GI50) ([1]; PC-3 (PR) cell line, log10 of GI50 in M): -5.5
- GI50 ([1]; PC-3, read-out: GI50): 3100 nM
- GI50 ([1]; RPMI-8226, read-out: GI50): 1500 nM
- NCI-60 screening: Log(GI50) ([1]; RXF 393 (RE) cell line, log10 of GI50 in M): -5.97
- GI50 ([1]; RXF 393 (RE) cell line, read-out: NCI-60 screening: Raw GI50): 1100 nM
- GI50 ([1]; RXF 393, read-out: GI50): 1100 nM
- GI50 ([1]; SF-268, read-out: GI50): 1500 nM
- GI50 ([1]; SF-295, read-out: GI50): 1500 nM
- GI50 ([1]; SF-539, read-out: GI50): 1300 nM
- GI50 ([1]; SK-MEL-5, read-out: GI50): 1600 nM
- GI50 ([1]; SK-MEL-28, read-out: GI50): 3600 nM
- NCI-60 screening: Log(GI50) ([1]; SK-OV-3 (OV) cell line, log10 of GI50 in M): -5.67
- GI50 ([1]; SK-OV-3 (OV) cell line, read-out: NCI-60 screening: Raw GI50): 2200 nM
- GI50 ([1]; SK-OV-3, read-out: GI50): 2200 nM
